The record followed here is PubChem BioAssay (NCI).

Molecules are shown by their SMILES.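 Test compounds were applied to cells in 96-well plates for 48 hours at 5 doses. GI50 = concentration required for 50% inhibition of growth. The concentration for full growth arrest is given as TGI.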

Holding throughout (assay): DTP human tumour cell line panel, 48 h
In test [1] the test system is OVCAR-5 ovarian.
The subject of test [2] is SK-MEL-28 melanoma.
The subject of test [3] is ACHN renal.
The subject of test [4] is UACC-257 melanoma.
Test [5] deals with SNB-19 CNS.
For test [6], the system named is HL-60(TB) leukemia.
For test [7], the system named is UACC-62 melanoma.
Test [8] has as its system MDA-MB-231 breast.
The subject of test [9] is NCI-H226 lung.
For test [10], the system named is MDA-N.

For orientation: TGI means the concentration at which net growth stops. Low values mean more potent growth arrest, high ones less potent growth arrest. As for `Cc1cc2c(=O)c3ccc(Cl)cc3[nH]c2c(C(N)=O)c1C`, the concentration for total growth inhibition (TGI) in test [1], in [2], in test [3], in [4], in test [5] and in [6] was over 100 µM throughout. Also, the TGI in [7] is over 100 µM.

`O=c1[nH]n(CCc2ccccc2CCl)c2ccc([N+](=O)[O-])cc12`: the TGI in test [8], in test [1], in test [2], in test [3], in [4] and in test [5] was over 100 µM each time. For the same molecule, the TGI in test [6], in test [9] and in test [7] was over 100 µM throughout.

Take `CCC1=C(C[C@H]2NCCc3cc(OC)c(OC)cc32)C[C@H]2c3cc(OC)c(OC)cc3CCN2C1`: the TGI in test [1] was 0.49 µM; in test [2], 0.192 µM; in test [3], 0.28 µM; in test [4], 0.365 µM; in [6] it was 0.0765 µM; in [7], 0.138 µM.

What is called GI50 is the concentration that inhibits growth by half. In the case of `O=C(O)Cn1c2c(c3c1-c1ccccc1C3=O)C(=O)CCC2`, the GI50 in test [8], in test [1], in test [2], in test [3], in [4] and in test [5] was over 100 µM in each case. Besides, the GI50 in [6] and in test [9] was over 100 µM in each case. In addition, the TGI in test [8], in test [1], in test [2], in test [3], in test [4] and in test [5] was over 100 µM each time. In addition, the TGI in test [6] and in test [9] was over 100 µM throughout.

As to `COc1ccc(OC)c2c(C)ccnc12`, the TGI in [10] was over 100 µM; in test [8], over 100 µM; in [1], over 100 µM; in [2] it was over 100 µM; in [3], over 100 µM; in test [4], over 92.5 µM. In addition, the figures for the TGI in test [5], in [9] and in test [7] were over 100 µM, over 93.4 µM and 93.5 µM, respectively.

With `O=C(Nc1ccc(-n2cc(-c3ccncc3)c(-c3ccc(O)c(Cl)c3)n2)cc1)c1ccc(Cl)c(C(F)(F)F)c1`, the GI50 in test [8] is 0.735 µM; in test [1], 10.1 µM; in [2], 3.61 µM; in [3] it was 1.8 µM; in [4], 4.87 µM; in test [5], 2.52 µM. In addition, the GI50 in test [6] is 1.83 µM; in [9], over 50 µM; in test [7], 3.38 µM. The TGI in [8] was 1.56 µM; in [1] it was over 50 µM; in [2], over 50 µM; in test [3], 13.3 µM; in test [4] it was 34.5 µM; in test [5] it was over 50 µM. The TGI in [6] is 12.5 µM; in test [9], over 50 µM; in [7], 14.2 µM.

In the case of `Cn1c2ccccc2n2c3ncccc3c(=O)cc12`, the concentration for total growth inhibition (TGI) in test [10], in test [8], in test [1], in test [2], in test [3] and in [4] was over 100 µM in each case. Also, the TGI in test [5] and in [9] was over 100 µM in each case.

As to `COc1cccc(C(C#N)NNC(=O)c2c(Cl)c(Cl)c(Cl)c(Cl)c2-c2nc3ccc(C(=O)c4ccccc4)cc3[nH]2)c1O` (stereo unspecified), the TGI in test [8] was over 100 µM; in test [1], 70.1 µM; in [2], over 100 µM; in [3], over 100 µM; in test [4], over 100 µM; in [5] it was 24.7 µM. Besides, the TGI in [6] was over 100 µM; in test [9], 8.43 µM.

`Oc1c(Cl)cc2cc1-c1cc(cc(Cl)c1O)CCc1c(cc(Cl)c(O)c1Cl)-c1cc(Cl)c(c(Cl)c1O)/C=C\2`: the TGI in test [1] is 19.5 µM; in [2] it was 19.3 µM; in test [3] it was 29.7 µM; in [4] it was 35.8 µM; in test [5] it was 26 µM; in test [6], over 50 µM. Moreover, the TGI in test [9] was 22.5 µM; in test [7], 18 µM.

As for `O=c1[nH]nc(-c2ccccc2)c2[nH]c3c(c12)Cc1ccccc1-3`, the TGI in [10] was over 27.4 µM; in [1] it was over 100 µM; in test [2], over 100 µM; in test [3], over 100 µM; in test [4], over 100 µM; in test [5], over 100 µM. The figures for the TGI in test [6], in test [9] and in test [7] were 7.48 µM, 70.7 µM and 2.69 µM, respectively.

`O=C1c2ccncc2C(=O)c2c(O)ccc(O)c21`: the TGI in test [1] worked out at 29.9 µM; in test [2] it was 26.7 µM; in test [3], 17.1 µM; in test [5], 24.8 µM; in test [6] it was 5.41 µM; in [9] it was 29.4 µM. This molecule had a TGI in test [7] of 10.6 µM.

For `COc1cc2nc(N3CCC[C@H](NC4=CC(=O)c5ccccc5C4=O)C3)nc(N)c2cc1OC`, the GI50 in test [8] is 1.63 µM; in [1], 2.05 µM; in test [2], 1.97 µM; in test [3], 1.84 µM; in test [4], 2.18 µM; in [6] it was 1.94 µM. The GI50 in test [9] is 16.6 µM; in test [7], 2.14 µM. In addition, the TGI is 3.3 µM in test [8]; 4 µM in test [1]; 3.67 µM in test [2]; 3.47 µM in test [3]; 3.94 µM in test [4]; 4.04 µM in [6]. Further, the TGI is 55.6 µM in test [9] and 4.72 µM in test [7].

On to `CC/C=C/c1cc2c(cc1O)CCC1C2CC[C@@]2(C)C1CC[C@@H]2O` (stereo partly specified), for which the total growth inhibition concentration (TGI) turned out to be 0.637 µM in test [10]; 18.1 µM in test [8]; 26.8 µM in test [1]; 24.1 µM in [2]; 17.9 µM in test [3]; 25.2 µM in test [4]. The TGI in test [5] amounted to 17.4 µM; in test [9] it was 10.6 µM; in test [7], 7.91 µM. In addition, in [7], the GI50 was 0.485 µM.
